{"source": "patent US20240115545A1", "about": "“PHARMACEUTICAL COMPOSITION CONTAINING B-LAPACHONE AS ACTIVE INGREDIENT FOR PREVENTION OR TREATMENT OF CHOLESTATIC LIVER DISEASE” (CUROME BIOSCIENCES CO., LTD., priority 2020, published 2024)", "key": {"[1]": {"system": "peripheral blood mononuclear cells (PBMCs)", "assay": "IL-1β and IL-18 expression in LPS and ATP treated peripheral blood mononuclear cells", "type": "cell-based, mice", "conditions": "LPS 200 ng/mL and ATP, 0.5, 1, 2 μM β-lapachone, 4 hours", "procedure": "Considering that inflammatory cytokines mediate the pathogenic mechanism of cholestatic liver disease, the peripheral blood mononuclear cell model was used by a modified method of Boyum et al. (1968). Peripheral blood mononuclear cells isolated from healthy 8-week-old C57BL/6 male mice (Samtako, Korea) were maintained by primary culture in RPMI-1640 medium containing 10% FBS, 2 mM glutamine, 100 U penicillin, and 0.1 mg/ml streptomycin. Stable peripheral blood mononuclear cells (PBMCs) were treated with LPS at 200 ng/mL and ATP and β-lapachone at 0, 0.5, 1, 2 μM in the medium and, after 4 hours, the expression levels of IL-1β and IL-18 were investigated, and the results are shown in FIG. 15."}, "[2]": {"system": "DDC-induced cholestatic liver disease mice", "assay": "H&E histology of portal vein and bile duct lesions, preventive β-lapachone in DDC-induced cholestatic liver disease mice", "type": "in vivo", "procedure": "DDC-induced cholestatic liver disease mouse animal models were prepared according to the method of Elisa Pose et al. by using 8-week-old C57BL/6 male mice (Samtako, Korea). Briefly, cholestatic liver disease was induced by feeding a standard rodent diet supplemented with 0.1% (w/w) DDC for 7 or 14 days. The 12-hour light and dark cycle was maintained and animals were allowed to free access to water. The standard rodent diet included medium wheat, wheat, corn, and corn gluten flour, and soybean oil (14% protein). All animal related procedures were reviewed and approved by the Institutional Animal Care and Use Committee of Korea Research Institute of Bioscience and Biotechnology (KRIBB), KRIBB-AEC-20165). The tissue staining of the cholestatic liver disease animal models was measured through H&E staining (basic tissue staining), Sirius Red staining (collagen staining), and Masson's trichrome staining (collagen, cytoplasm, muscle fibers, etc.), and the tissue staining was measured by a skilled researcher. After the mice were fed a diet containing 0.1% DDC for 14 days, tissue staining was performed for inflammation, fibrosis, and adhesion molecules around the portal vein, and the results are shown in FIG. 1. […]"}, "[3]": {"system": "DDC-induced cholestatic liver disease mice", "assay": "Sirius Red and Masson's trichrome staining of liver connective tissue, DDC-induced cholestatic liver disease mice", "type": "in vivo", "conditions": "40 and 80 mg/kg in diet, DDC 14 days", "procedure": "DDC-induced cholestatic liver disease mouse animal models were prepared according to the method of Elisa Pose et al. by using 8-week-old C57BL/6 male mice (Samtako, Korea). Briefly, cholestatic liver disease was induced by feeding a standard rodent diet supplemented with 0.1% (w/w) DDC for 7 or 14 days. The 12-hour light and dark cycle was maintained and animals were allowed to free access to water. The standard rodent diet included medium wheat, wheat, corn, and corn gluten flour, and soybean oil (14% protein). All animal related procedures were reviewed and approved by the Institutional Animal Care and Use Committee of Korea Research Institute of Bioscience and Biotechnology (KRIBB), KRIBB-AEC-20165). The tissue staining of the cholestatic liver disease animal models was measured through H&E staining (basic tissue staining), Sirius Red staining (collagen staining), and Masson's trichrome staining (collagen, cytoplasm, muscle fibers, etc.), and the tissue staining was measured by a skilled researcher. To investigate the preventive effect of β-Lapachone (BL) on cholestatic liver disease, the mice were fed a diet with 0 (DDC-vehicle), 40 mg/kg (DDC-BL40) and 80 mg/kg (DDC-BL80) 3 days before DDC treatment (total 17 days) and, after 3 days, were fed a diet with DDC (total 14 days). […]"}, "fibrosis-related genes": {"system": "fibrosis-related genes", "assay": "Real-time PCR of fibrosis-related genes in liver tissue, preventive β-lapachone in DDC mice (Example 2.3)", "type": "in vivo", "conditions": "DDC-BL40 and DDC-BL80 vs DDC-vehicle, DDC 14 days", "procedure": "DDC-induced cholestatic liver disease mouse animal models were prepared according to the method of Elisa Pose et al. by using 8-week-old C57BL/6 male mice (Samtako, Korea). Briefly, cholestatic liver disease was induced by feeding a standard rodent diet supplemented with 0.1% (w/w) DDC for 7 or 14 days. The 12-hour light and dark cycle was maintained and animals were allowed to free access to water. The standard rodent diet included medium wheat, wheat, corn, and corn gluten flour, and soybean oil (14% protein). All animal related procedures were reviewed and approved by the Institutional Animal Care and Use Committee of Korea Research Institute of Bioscience and Biotechnology (KRIBB), KRIBB-AEC-20165). To investigate the preventive effect of β-Lapachone (BL) on cholestatic liver disease, the mice were fed a diet with 0 (DDC-vehicle), 40 mg/kg (DDC-BL40) and 80 mg/kg (DDC-BL80) 3 days before DDC treatment (total 17 days) and, after 3 days, were fed a diet with DDC (total 14 days). After 14 days of DDC treatment, the mice were sacrificed and the liver was harvested including the portal vein (PV) and bile ducts of the mice, and the surrounding lesions were confirmed by H&E, and are shown in FIG. 1. The expression of the factors in the liver tissue obtained from the cholestatic liver disease mouse animal models of Example 2.1 was performed by a real-time polymerase chain reaction was performed according to the following procedure. Total RNA from liver samples was extracted using Tri-RNA Reagent (Favrogen BIOTECH CORP, Nong-Ke Rd, Taiwan) according to the procedure presented by Favrogen, and was reverse transcribed into cDNA by using PrimeScript™ RT reagent Kit with gDNA Eraser (TAKARA Korea Biomedical Inc, Seoul, 08506, Korea). Quantitative PCR was performed using TB Green™ Premix Ex Taq™ II (Tli RNaseH Plus), ROX plus (TAKARA Korea Biomedical Inc, Seoul, 08506, Korea) and QuantStudio 5 Real-Time PCR Instrument (Thermo Fisher Scientific, Waltham, MA, USA)."}}, "data": [{"smiles": "CC1(C)CCC2=C(O1)c1ccccc1C(=O)C2=O", "note": "[β-lapachone]", "values": [{"measurement": "expression level of IL-1β increased by LPS and ATP", "setting": "[1]", "result": "reduced depending on the concentration"}, {"measurement": "expression level of IL-18 increased by LPS and ATP", "setting": "[1]", "result": "reduced depending on the concentration"}, {"measurement": "concentration dependence of lesion reduction of portal vein and bile ducts (H&E)", "setting": "[2]; 80 mg/kg (BL80) compared with 40 mg/kg (BL40)", "result": "reduced the lesions of the DDC-treated portal vein and bile ducts depending on the concentration thereof"}, {"measurement": "lesions around the portal vein (PV) and bile ducts (H&E)", "setting": "[2]; DDC-BL40 and DDC-BL80 (40 and 80 mg/kg in diet from 3 days before DDC, total 17 days; DDC 14 days) vs DDC-vehicle", "result": "significant lesion reductions"}, {"measurement": "formation of connective tissues / fibrosis progression (Sirius Red and Masson's trichrome staining)", "setting": "[3]", "result": "inhibited such fibrosis progression"}, {"measurement": "transcriptional level of Co|1α1 in liver", "setting": "fibrosis-related genes", "result": "significantly reduced"}, {"measurement": "transcriptional level of Co|4α1 in liver", "setting": "fibrosis-related genes", "result": "significantly reduced"}, {"measurement": "transcriptional level of TGF-β1 in liver", "setting": "fibrosis-related genes", "result": "significantly reduced"}, {"measurement": "transcriptional level of fibronectin in liver", "setting": "fibrosis-related genes", "result": "significantly reduced"}, {"measurement": "transcriptional level of α-SMA in liver", "setting": "fibrosis-related genes", "result": "significantly reduced"}]}]}
